# In patent US20100190768A1, “NOVEL FUSED PYROLE DERIVATIVE” (Dainippon Sumitomo Pharma Co., Ltd., priority 2005, published 2010):
# Read-outs that look alike come from different tables or passages of the source.
# How the values were obtained:
# H4-III-E cells = test: TAT (tyrosine aminotransferase) assay; format: cell-based; conditions: for activation at 10 µM / Agonistic activity of 10 μM test compound: 10 μM test compound alone, relative to maximum Dex-induced TAT activity (100%); for activation at 10 µM: read-out: Agonistic activity of 10 μM test compound; for Antagonistic activity of 10 μM test compound: 10 μM test compound together with 0.005 μM dexamethasone, inhibitory ratio against TAT activity increase by Dex
# Experimental: H4-III-E cells, which had been continuously cultured in α-MEM medium A (supplemented with 10% inactivated FBS, 50 μM 2-mercapto-ethanol), were suspended in α-MEM medium A or α-MEM medium B (supplemented with 10% inactivated FBS, 50 μM 2-mercapto-ethanol, but without phenol red), and the cell suspension was seeded to a 96-well plate in an amount of 2×10^4 cells/100 μl/well, and the cells were cultured overnight. The supernatant in the medium was removed, and a test compound (100 μl, diluted with α-MEM medium A or α-MEM medium B) was added, and the cells were further cultured overnight. In order to measure the agonistic activity, a test compound was added alone, while in order to measure the antagonistic activity, a test compound was added simultaneously together with 0.005 μM dexamethasone and evaluated the extent of the inhibitory effect of said test compound against the TAT activity-inducing activity by dexamethasone.
# The culture supernatant in the plate was removed by suction, and a cell lysate (20 μL; 1% NP-40, 0.2% Triton X-100, 0.25% DOC, 0.1% SDS, 1 mM EGTA, 150 mM NaCl, Tris (pH7.4), Protease inhibitor cocktail [2.5 mg/ml aprotinin, 2.5 mg/ml leupeptin, 2.5 mg/ml soybean trypsin inhibitor]) was added, and further thereto was added a TAT reaction reagent (150 μL; 10 N KOH, 0.125 M KH2PO4, 0.5 M α-ketoglutarate, 5 mM Pyridoxal-5′ phosphate, L-tyrosine), and the mixture was reacted at 37° C. for 15 minutes. Further, a 10N KOH (20 μL) was added thereto, and the mixture was reacted at 37° C. for 30 minutes, and the absorbance at 331 nm was measured by a microplate reader (SPECTRA MAX 250).
# From the mean absorbance in the wells to which a test compound was added, the mean absorbance in the wells to which a compound and a TAT reaction solution were not added was subtracted.
# Agonistic activity (%)=100×[(absorbance of the drug-treated group)−(absorbance of the group without TAT reaction reagent)]/[(absorbance of Dex-treated group)−(absorbance of the group without TAT reaction reagent)]
# On the other hand, the antagonistic activity was calculated as follows.
# Antagonistic activity (%)=Inhibitory ratio (%) against TAT activity increase by Dex=100−100×[(absorbance of the drug-treated group)−(absorbance of the group without a drug)]/[(absorbance of Dex-treated group)−(absorbance of the group without a drug)]
# With regard to the agonistic activity and the antagonistic activity, the results of 10% or more were expressed as O, while the results of less than 10% were expressed as X.
# human GRα protein = target: T1, human GRα protein (Homo sapiens, UniProt P04150); test: Binding inhibitory assay (displacement of 3H-dexamethasone from the cytoplasm fraction of baculovirus-infected insect cells); conditions: for inhibition at 0.1 µM: read-out: Binding Inhibitory ratio (%) of 100 nM of test compound
# T1 construct: made in house; host or cells: insect cells infected with baculovirus; cytoplasm fraction used
# T1 sequence (P04150 1-777): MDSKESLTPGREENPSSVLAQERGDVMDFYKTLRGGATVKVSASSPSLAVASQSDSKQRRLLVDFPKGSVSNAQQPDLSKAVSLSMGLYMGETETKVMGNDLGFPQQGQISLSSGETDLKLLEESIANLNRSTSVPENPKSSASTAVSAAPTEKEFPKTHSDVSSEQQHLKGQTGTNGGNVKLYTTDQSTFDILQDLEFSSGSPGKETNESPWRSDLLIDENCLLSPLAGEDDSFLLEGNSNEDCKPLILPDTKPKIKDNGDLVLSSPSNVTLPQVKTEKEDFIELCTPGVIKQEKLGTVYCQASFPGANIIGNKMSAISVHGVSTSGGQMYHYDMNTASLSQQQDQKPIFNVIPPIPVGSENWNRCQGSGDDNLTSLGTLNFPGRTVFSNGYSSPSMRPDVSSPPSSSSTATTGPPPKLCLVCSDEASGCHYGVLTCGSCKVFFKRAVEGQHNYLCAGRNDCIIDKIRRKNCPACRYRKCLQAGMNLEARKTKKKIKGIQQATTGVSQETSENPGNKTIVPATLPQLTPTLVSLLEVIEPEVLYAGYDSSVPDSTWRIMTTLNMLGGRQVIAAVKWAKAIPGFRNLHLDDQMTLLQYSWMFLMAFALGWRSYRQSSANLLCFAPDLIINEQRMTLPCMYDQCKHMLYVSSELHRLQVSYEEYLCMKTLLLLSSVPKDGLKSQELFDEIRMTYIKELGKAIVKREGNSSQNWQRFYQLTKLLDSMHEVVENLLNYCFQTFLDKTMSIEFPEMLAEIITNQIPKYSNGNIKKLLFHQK
# Experimental: Insect cells, which had been infected with baculovirus for expressing human GRα protein, were suspended in an approximately equal volume of a binding buffer (10 mM Tris-Cl, 1.5 mM EDTA, 10% glycerol, 5 mM DTT, 20 mM sodium molybdate, pH 7.6). The mixture was rapidly frozen with liquid nitrogen, and then melted at room temperature. This cycle was repeated totally twice in order to break the cell membrane. The mixture was ultracentrifuged under 100,000 g at 4° C. for one hour to give the supernatant, which was the cytoplasm fraction containing human GRα protein.
# A polypropylene 96-well plate (manufactured by Costar Corporation, etc.) was placed on ice, and DMSO or a test compound (each 1 μl) was put into each well. A 10 nM ^3H-Dex solution (50 μl; tritiated dexamethasone; manufactured by Amersham) in the binding buffer, and a GR protein solution, i.e., a solution by diluting the above cytoplasm fraction with the binding buffer (50 μl) were added to each well, and the plate was lightly shaken with a plate mixer, and then left to stand at 4° C. for 16 to 20 hours (the final concentration of DMSO: 1%).
# A 5% solution of dextran-coated active carbon (manufactured by Sigma) suspended in the binding buffer (50 μl) was put into each well, and the plate was lightly shaken with a plate mixer for 30 seconds. Then, the plate was centrifuged at 2500 rpm at 4° C. for 5 minutes, and the ^3H count in the supernatant (50 μl) was measured by a TopCount (manufactured by Perkin-Elmer Corporation). Each test compound was tested twice.
# The binding activity was calculated as follows. The mean ^3H count in the presence of dexamethason (Dex) 10 μM was considered as NSB (non-specific binding), and the binding inhibitory ratio in each well was calculated by the following equation.
# Binding Inhibitory Ratio (%)=100×{1−(cpm value of each well−NSB)/(mean cpm value of DMSO-well−NSB)}
# (cpm means count per minute)
# The mean binding inhibitory ratio of each well was calculated by the above equation to give a binding inhibitory ratio of each test compound.
# [1] = 100 nM test compound, 3H-Dex, NSB with 10 μM dexamethasone
Structure (SMILES),inhibition at 0.1 µM (human GRα protein; [1]),activation at 10 µM (H4-III-E cells),Antagonistic activity of 10 μM test compound (H4-III-E cells),inhibition at 0.1 µM (human GRα protein),"Binding Inhibitory ratio (%) of test compound (1 μM) (human GRα protein; 1 μM test compound, 3H-Dex, NSB with 10 μM dexamethasone)",Agonistic activity of 10 μM test compound (H4-III-E cells)
"O=[N+]([O-])c1ccc2c(C(O)(CN3CCCCC3)C(F)(F)F)cn(Cc3ccccc3)c2c1 (centres unmarked) [Example 1, 2-(1-Benzyl-6-nitro-1H-indol-3-yl)-1,1,1-trifluoro-3-piperidin-1-ylpropan-2-ol]",92%,< 10%,◯,,,
"CCOC(=O)C(O)(c1cn(Cc2ccccc2)c2cc([N+](=O)[O-])ccc12)C(F)(F)F (centres unmarked) [Example 2, Ethyl 2-(1-benzyl-6-nitro-1H-indol-3-yl)-3,3,3-trifluoro-2-hydroxypropanoate]",,< 10%,◯,87%,,
"C=CCC(O)(c1cn(Cc2ccccc2)c2cc([N+](=O)[O-])ccc12)C(F)(F)F (centres unmarked) [Example 8, 2-(1-Benzyl-6-nitro-1H-indol-3-yl)-1,1,1-trifluoropent-4-en-2-ol]",98%,< 10%,◯,,,
"CCOC(=O)C(O)(c1cn(Cc2ccccc2)c2c([N+](=O)[O-])cccc12)C(F)(F)F (centres unmarked) [Example 21, Ethyl 2-(1-benzyl-7-nitro-1H-indol-3-yl)-3,3,3-trifluoro-2-hydroxypropanoate]",,< 10%,◯,,79%,
"Cc1ccccc1C(=O)CC(O)(c1cn(Cc2ccccc2)c2cc([N+](=O)[O-])ccc12)C(F)(F)F (centres unmarked) [Example 68, 3-(1-Benzyl-6-nitro-1H-indol-3-yl)-4,4,4-trifluoro-3-hydroxy-1-(2-methylphenyl)-butan-1-one]",79%,< 10%,◯,,,
"COc1ccc(C(=O)C2CCN(CC(O)(c3cn(Cc4ccccc4)c4cc([N+](=O)[O-])ccc34)C(F)(F)F)CC2)cc1 (centres unmarked) [Example 73, {1-[2-(1-Benzyl-6-nitro-1H-indol-3-yl)-3,3,3-trifluoro-2-hydroxypropyl]piperidin-4-yl}(4-methoxyphenyl)methanone]",95%,,◯,,,◯
"O=[N+]([O-])c1ccc2c(C(O)(CN3CCN(c4ccccc4)CC3)C(F)(F)F)cn(Cc3ccccc3)c2c1 (centres unmarked) [Example 75, 2-(1-Benzyl-6-nitro-1H-indol-3-yl)-1,1,1-trifluoro-3-(4-phenylpiperazin-1-yl)propan-2-ol]",96%,,◯,,,◯
"O=[N+]([O-])c1ccc2c(C(O)(CN3CCC(O)(Cc4ccccc4)CC3)C(F)(F)F)cn(Cc3ccccc3)c2c1 (centres unmarked) [Example 76, 4-Benzyl-1-[2-(1-benzyl-6-nitro-1H-indol-3-yl)-3,3,3-trifluoro-2-hydroxypropyl]-piperidin-4-ol]",60%,< 10%,◯,,,

# Second part, led by results:
inhibition at 0.1 µM (human GRα protein; [1]),Structure (SMILES),activation at 10 µM (H4-III-E cells),Antagonistic activity of 10 μM test compound (H4-III-E cells),inhibition at 0.1 µM (human GRα protein),"Binding Inhibitory ratio (%) of test compound (1 μM) (human GRα protein; 1 μM test compound, 3H-Dex, NSB with 10 μM dexamethasone)",Agonistic activity of 10 μM test compound (H4-III-E cells)
92%,"O=[N+]([O-])c1ccc2c(C(O)(CN3CCC(Oc4ccc(F)cc4)CC3)C(F)(F)F)cn(Cc3ccccc3)c2c1 (centres unmarked) [Example 77, 2-(1-Benzyl-6-nitro-1H-indol-3-yl)-1,1,1-trifluoro-3-[4-(4-fluorophenoxy)-piperidin-1-yl]propan-2-ol]",,◯,,,◯
81%,"O=[N+]([O-])c1ccc2c(C(O)(CN3CCC(O)CC3)C(F)(F)F)cn(Cc3ccccc3)c2c1 (centres unmarked) [Example 78, 1-[2-(1-Benzyl-6-nitro-1H-indol-3-yl)-3,3,3-trifluoro-2-hydroxypropyl]piperidin-4-ol]",,◯,,,◯
59%,"CN(C(=O)C1CCN(CC(O)(c2cn(Cc3ccccc3)c3cc([N+](=O)[O-])ccc23)C(F)(F)F)CC1)c1ccccc1 (centres unmarked) [Example 95, 1-[2-(1-Benzyl-6-nitro-1H-indol-3-yl)-3,3,3-trifluoro-2-hydroxypropyl]-N-methyl-N-phenylpiperidine-4-carboxamide]",< 10%,◯,,,
101%,"CC(C)(C)OC(=O)N1CCN(CC(O)(c2cn(Cc3ccccc3)c3cc([N+](=O)[O-])ccc23)C(F)(F)F)CC1 (centres unmarked) [Example 100, tert-Butyl 4-[2-(1-benzyl-6-nitro-1H-indol-3-yl)-3,3,3-trifluoro-2-hydroxypropyl]-piperazine-1-carboxylate]",,◯,,,◯
101%,"O=C(c1cccs1)N1CCN(CC(O)(c2cn(Cc3ccccc3)c3cc([N+](=O)[O-])ccc23)C(F)(F)F)CC1 (centres unmarked) [Example 106, 2-(1-Benzyl-6-nitro-1H-indol-3-yl)-1,1,1-trifluoro-3-[4-(2-thienylcarbonyl)-piperazin-1-yl]propan-2-ol]",,◯,,,◯
50%,"O=[N+]([O-])c1ccc2c(C(O)(CNCCc3ccccc3)C(F)(F)F)cn(Cc3ccccc3)c2c1 (centres unmarked) [Example 157, 2-(1-Benzyl-6-nitro-1H-indol-3-yl)-1,1,1-trifluoro-3-[(2-phenylethyl)amino]-propan-2-ol]",,,,,
74%,"CCOC(=O)CCc1ccc(C(=O)C2CCN(CC(O)(c3cn(Cc4ccccc4)c4cc([N+](=O)[O-])ccc34)C(F)(F)F)CC2)cc1 (centres unmarked) [Example 229, Ethyl 3-[4-({1-[2-(1-benzyl-6-nitro-1H-indol-3-yl)-3,3,3-trifluoro-2-hydroxypropyl]piperidin-4-yl}carbonyl)phenyl]propanoate]",,,,,
